Measurements from patent US12378203B2, “Imidazole compounds, process for the synthesis and uses thereof” (AHAMMUNE BIOSCIENCES PRIVATE LIMITED, priority 2018, dated 2025).

Assays:
Assay type in all cases: cell-based
mouse B16F10 cells = assay: Protection of melanocytes from tunicamycin (ER stress) induced cell death, MTT assay, B16F10; details: for % Recovery: compound at 25-30 μM, 6 h pretreatment, tunicamycin 300 ng/ml, total 72 h, cell growth over tunicamycin treatment
Protocol: (§1) Compounds synthesized under present invention were tested for their in vitro potency. The potency was tested as their ability to protect melanocytes from ER stress induced cell death. ER stress was caused by the treatment of tunicamycin. The results obtained are summarized in Table-I, Table-II and Table-III for mouse B16F10 cells, human A375 cells and human primary melanocytes respectively. Table-IV and Table-V describes the potency of the compounds in effective concentration 50 (EC50) which means the dose of compound needed to get the 50% of maximum effect.
(§2) For the estimation of potency, mouse B16F10, human A375 or human primary melanocytes (NHEM) cells were pretreated in quadruplicates with these compounds for 6 hours. After 6 hours of incubation, tunicamycin was added at either 300 ng/ml for B16F10 cells or at 100 ng/ml for A375 cells or at 200 ng/ml for NHEM to induce stress mediated cell death and cultured further for a total of 72 hours. The vehicle (DMSO) concentration was kept constant for each well. After 72 hours of treatment, MTT assay was performed to measure the cell growth and vehicle control was kept at 100%. Effect of the treatment of compounds was calculated as cell growth over tunicamycin treatment. For the estimation of Effective Concentration 50 (EC50), cells were treated with different concentration of compounds along with tunicamycin and MTT assay was performed. The EC50 values were calculated by GraphPad Prism 7 software.

human A375 cells = assay: Protection of melanocytes from tunicamycin (ER stress) induced cell death, MTT assay, A375; details: for EC50: Homo sapiens, A-375, different concentrations of compound along with tunicamycin, GraphPad Prism 7; for % Recovery: compound at 25-30 μM, 6 h pretreatment, tunicamycin 100 ng/ml, total 72 h, cell growth over tunicamycin treatment
Protocol: as §1, §2

[1] = system: human primary melanocytes (NHEM: Normal Human Epidermal Melanocytes); assay: Protection of melanocytes from tunicamycin (ER stress) induced cell death, MTT assay, NHEM; details: compound at 25-30 μM, 6 h pretreatment, tunicamycin 200 ng/ml, total 72 h, cell growth over tunicamycin treatment
Protocol: as §1, §2

Row | SMILES | EC50 (mouse B16F10 cells; Mus musculus, B16-F10, different concentrations of compound along with tunicamycin, GraphPad Prism 7) | % Recovery (mouse B16F10 cells) | EC50 (human A375 cells) | % Recovery (human A375 cells) | % Recovery [1]
1 | O=C(NCCc1c[nH]c(-c2ccc(Cl)cc2)n1)c1ccc(C(F)(F)F)cc1 [Compound 053, N-(2-(2-(4-chlorophenyl)-1H-imidazol-4-yl)ethyl)-4-(trifluoromethyl)benzamide] | 18.1 µM | 24% | 2.9 µM | 65% | 37%
2 | O=C(NCCc1c[nH]c(-c2ccc(Cl)cc2)n1)c1cc(F)cc(F)c1 [Compound 054, N-(2-(2-(4-chlorophenyl)-1H-imidazol-4-yl)ethyl)-3,5-difluorobenzamide] |  | 33% | 2.9 µM | 58% | 46%
3 | O=C(NCCc1c[nH]c(-c2ccc(Cl)cc2)n1)C1=CCCC1 [Compound 055, N-(2-(2-(4-chlorophenyl)-1H-imidazol-4-yl)ethyl)cyclopent-1-ene-1-carboxamide] |  | 10% | 8.9 µM | 59% | 13%
